Results from patent publication US20050261319A1, “Novel 2-amino-4-quinazolinones and 2-amino-4-oxoquinazolones as LXR nuclear receptor binding compounds with partial agonistic properties” (priority 2002, published 2005).

How the values were obtained:
Type in all cases: cell-based
GAL4-LXRb-LBD = target: T1, GAL4-LXRb-LBD (Homo sapiens, UniProt P55055); experiment: Mammalian one hybrid (M1H) luciferase assay in HEK293 cells, LXR beta LBD; details: for LXR beta LBD construct mediated luciferase activity compared with LXR alpha construct: M1H assay
T1 construct: expressed in transfected cells; host or cells: HEK293
T1 sequence (P55055 222-460 limits assumed): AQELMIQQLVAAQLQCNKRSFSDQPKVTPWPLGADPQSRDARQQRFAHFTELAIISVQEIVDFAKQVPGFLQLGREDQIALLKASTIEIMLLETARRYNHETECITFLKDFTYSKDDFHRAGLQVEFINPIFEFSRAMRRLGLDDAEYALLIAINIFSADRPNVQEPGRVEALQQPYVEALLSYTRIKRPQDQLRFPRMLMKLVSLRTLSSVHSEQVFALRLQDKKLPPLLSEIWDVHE
Protocol: For TR1040001892, TR1040011382, TR1040002211, and TR1040002212, HEK293 cells are grown in 96 well plates and co-transfected with pFR-luc (Stratagene) and pCMV-BD-LXRa-LBD or pCMV-BD-LXRb-LBD (each 100 ng of plasmid DNA per well). Transfection is carried using Lipfectamine 2000 (Gibco-BRL) according to the manufacturers protocol. The ligand binding domains (LBD) of LXRa and LXRb are cloned into the pCMV-BD-GW (the Gateway Reading Frame Cassette B is cloned as an EcoRV fragment into Sma1 site of pCMV-BD) applying the manufacturer protocols for the Gateway system (Invitrogen). […] The type of assay used here is a mammalian one hybrid (M1 H) assay that is known to those skilled in the art.

[1] = system: FAS and SREBP-1c in HepG2 cells; experiment: mRNA content of FAS and SREBP-1c in HepG2 cells (TaqMan)
Protocol: THP-1 (3×10^5 cells per dish) cells were seeded in […] RPMI-1640 medium (ATTC, Cat. No. 30-2001) containing 10% FCS (GIBCO) and 100 nM TPA and cultivated at 37° C. in 5% CO2 for 24 or 48 hours. HepG2 (4.5×10^5 cells per dish) were seeded in 24 well dishes in 3 ml DMEM Medium containing 10% FCS (GIBCO) and cultivated at 37° C. in 5% CO2 for 48 hours as indicated in FIG. 8B or until they are approx. 60% confluent.
The medium was then removed and replaced with medium containing 10% charcoal/stripped FCS (Hyclone) for 12 h.
LXR compounds are dissolved in DMSO, with the final solvent concentration never exceeding 0.125%. All treatments are done in triplicates and experiments repeated twice. Total RNA is extracted using the Qiagen Rneasy Mini Kit and treated with DNase (DNA free kit, Ambion). RNA is reverse transcribed with Oligo (dT) primer and real-time reverse transcription PCR (TaqMan) is performed using the ABI Prism 7900HT Sequence Detection System and reagents supplied by Applied Biosystems. mRNA steady state levels are normalised to H3 histone (H3F3A) expression levels.
The sequences of forward primers, reverse primers and TaqMan probes are as follows

HepG2 liver cells = experiment: Triglyceride assay in HepG2 cells; details: 24 h, 25 pM
Protocol: Methods: Cultures of the monocyte-macrophage cell line and the hepatocytes HepG2 are obtained from the American Type tissue Culture Collection, Rockville, Md. and were grown in RPMI 1640 medium supplemented with 10% fetal bovine serum, 10 mM HEPES, 2 mM pyruvate, 50 uM (3-Mercaptoethanol (THP-1) and Minimum essential medium (Eagle) with 2 mM L-glutamine and Earle's BSS supplemented with 10% fetal bovine serum, 2 mM glutamin, 0.1 mM non-essential amino acids, 1 mM sodium pyruvate (HepG2), respectively, at 37° C. in 5% CO2.
For cholesterol efflux measurements and triglyceride analysis cells are seeded in 6 well plates at 1.8×10^6 cells (THP-1) and 1×10^6 cells (HepG2) per well, respectively.
TRIGLYCERIDE ASSAY HepG2 cells are seeded in poly-L-Lysine coated 6 well plates at 1×10^6 cells per well in EMEM medium containing 10% FCS until they were appr. 60% confluent. Before treatment with LXR compounds growth medium is changed to medium containing 10% charcoal/dextran-stripped FCS for 12 h. Treatment is done for 24 h in medium containing 10% charcoal/dextran-stripped FCS. Cells are washed twice with ice-cold PBS/0.2% BSA and twice with cold PBS and all liquid carefully removed. Triglyceride are extracted with 1.5 ml hexane/isopropanol=3: 2 per well with gentle shaking for 2-3 h at RT according to Pan et al. (2002) JBC277, 4413-4421 and Goti et al. (1998) Biochem J, 332, 57-65. The extraction solution is collected, dried under vacuum and redissolved in isopropanol/1.5% triton. The remaining cellular proteins are lysed with 0.3 N NaOH and protein content measured with the Biorad Bradford reagent.
Triglyceride levels are measured as esterified glycerol using a commercial enzymatic colorimetric kit (Sigma 343-25P). In a preliminary assay it is checked by omitting the lipase enzyme that contribution of free glycerol is negligible.

Compound | luciferase reporter gene expression mediated through GAL4-LXRb-LBD (GAL4-LXRb-LBD) | LXR beta LBD construct mediated luciferase activity compared with LXR alpha construct (GAL4-LXRb-LBD) | upregulation of FAS [1] | upregulation of SREBP-1c [1] | triglyceride mass (HepG2 liver cells)
C=CCn1c(N2C3CC(C)(C)CC2(C)C3)nc2ccc(I)cc2c1=O (stereo not drawn) [formula (9)] | activate luciferase reporter gene expression in a dose dependent manner | much stronger than with LXR alpha construct | does not significantly upregulate | much reduced | do not cause a significant increase
CC(C)n1c(N2C3CC(C)(C)CC2(C)C3)nc2ccc(I)cc2c1=O (stereo not drawn) [formula (10)] | activate luciferase reporter gene expression in a dose dependent manner | much stronger than with LXR alpha construct |  |  | do not cause a significant increase
CCCn1c(N2[C@@H]3CC(C)(C)C[C@@]2(C)C3)nc2cccc(F)c2c1=O [formula (11)] | activate luciferase reporter gene expression in a dose dependent manner |  |  |  | slight increase
C=CCn1c(N2[C@@H]3CC(C)(C)C[C@@]2(C)C3)nc2cccc(F)c2c1=O [formula (12)] | activate luciferase reporter gene expression in a dose dependent manner |  |  |  | slight increase
